Assay results: PubChem BioAssay (NCI)
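The compound was tested at five concentrations on cells cultured in 96-well plates, with a 48-hour exposure period. TGI: total growth inhibition.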 *1 amine or outer side, *2 acyl side, *3 side chain or, on linkers, in order; H or OH if unused. Where a SMILES comes first, the peptide text is derived from it. Bridges are numbered along the chain shown (N, C = ends). [ ]: non-standard residue; d: D form. ξ: configuration not given here. X4 = CCC(C)C(N[*:1])C(O)CC(=O)O[C@H](C(=O)C(C)C(=O)[*:2])C(C)C; NMeY = CN[C@@H](Cc1ccc(O)cc1)C(=O)O; X9 = O=C([C@@H]1CC(O)CN1[*:1])[*:2]; ξNMeL = CNC(CC(C)C)C(=O)O; ξT = CC(O)C(N)C(=O)O

How the values were obtained:
Experiment in all cases: NCI anticancer screen, dose series, 48 h
M19-MEL melanoma = test system: M19-MEL melanoma
DMS 273 small cell lung = test system: DMS 273 small cell lung
DLD-1 colon = test system: DLD-1 colon
RXF-631 renal = test system: RXF-631 renal
HOP-18 NSCLC = test system: HOP-18 NSCLC
MDA-N = test system: MDA-N
XF 498 CNS = test system: XF 498 CNS

CC(C)=CC(=O)Cc1nc2ccccc2[nH]c1=O
TGI (M19-MEL melanoma): > 100 µM
TGI (DMS 273 small cell lung): > 100 µM
TGI (DLD-1 colon): > 100 µM
TGI (RXF-631 renal): > 100 µM
TGI (HOP-18 NSCLC): > 100 µM

CCOC(=O)C1CCC/C1=N\N=C(N)N (stereo not given) (tested in a mixture with another compound)
TGI (MDA-N): > 100 µM

O=C(Nc1ccc(C(F)(F)F)cc1[N+](=O)[O-])C(=O)C(C(=O)c1ccc2ccccc2c1)C1OC(=O)c2ccccc21 (stereo not given)
TGI (M19-MEL melanoma): 42.7 µM
TGI (DLD-1 colon): 26.7 µM

CC1(C)OC2C(CO)OC(n3ccc(=O)[nH]c3=O)C2O1 (stereo not given)
TGI (MDA-N): > 100 µM

C[C@]12CC[C@H]3[C@@H](CCC4=CC(=O)CC[C@@H]43)[C@@H]1CC[C@@H]2OC1(O)C(=O)c2ccccc2C1=O
TGI (MDA-N): 35.1 µM

Cc1cc2c(cn1)C(=O)OCC2
TGI (M19-MEL melanoma): > 100 µM
TGI (XF 498 CNS): > 100 µM
TGI (DLD-1 colon): > 100 µM
TGI (HOP-18 NSCLC): > 100 µM

CCOC(=O)/C(C#N)=C(O)/C(=C/c1ccccc1Cl)NC(=O)c1ccccc1
TGI (M19-MEL melanoma): > 100 µM
TGI (DMS 273 small cell lung): > 100 µM
TGI (DLD-1 colon): > 100 µM
TGI (HOP-18 NSCLC): > 100 µM

CCc1ccccc1NC(=O)CCc1nc(=S)[nH][nH]1
TGI (M19-MEL melanoma): > 100 µM
TGI (XF 498 CNS): > 100 µM
TGI (DMS 273 small cell lung): > 100 µM
TGI (DLD-1 colon): > 100 µM
TGI (RXF-631 renal): > 100 µM

CC1(C)CCSC(/C=C/c2ccccc2)=N1
TGI (MDA-N): 24.8 µM

O=C(CC(=O)Nc1ccc(Cl)cc1)NNCC(=O)Nc1nc(-c2ccccc2)cs1
TGI (M19-MEL melanoma): > 100 µM
TGI (XF 498 CNS): > 100 µM
TGI (DMS 273 small cell lung): > 100 µM
TGI (DLD-1 colon): > 100 µM
TGI (HOP-18 NSCLC): > 100 µM

Cc1cc2c(C(C)C)c(O)c(O)c3coc(/c1=c1/c(C)cc4c(C(C)C)c(=O)c(=O)c5coc1c45)c32
TGI (M19-MEL melanoma): 19.7 µM
TGI (XF 498 CNS): 17.4 µM
TGI (DMS 273 small cell lung): 13.8 µM
TGI (DLD-1 colon): 16.4 µM
TGI (RXF-631 renal): 22 µM

O=c1c2cc(Br)ccc2oc2ccc(Br)cc12
TGI (MDA-N): > 100 µM

CN1C(c2ccccc2)CC(=Nc2ccccc2)CC1c1ccccc1 (stereo not given)
TGI (M19-MEL melanoma): 15.7 µM
TGI (DMS 273 small cell lung): 22 µM
TGI (DLD-1 colon): 24.2 µM
TGI (RXF-631 renal): 67.6 µM

O=C(O)CC(Cc1ccc2c(c1)OCO2)C(=O)O (stereo not given)
TGI (MDA-N): > 100 µM

N=C(c1ccccc1)N1CCCCC1
TGI (M19-MEL melanoma): > 100 µM
TGI (DMS 273 small cell lung): > 100 µM
TGI (DLD-1 colon): > 100 µM
TGI (HOP-18 NSCLC): > 100 µM

COc1ncnc2c(NC3OC(CO)C(O)C3O)ncnc12 (stereo not given)
TGI (MDA-N): 22.8 µM
TGI (XF 498 CNS): 7.84 µM
TGI (DMS 273 small cell lung): 5.74 µM
TGI (DLD-1 colon): 33.7 µM
TGI (RXF-631 renal): 15.4 µM

COc1cc2c(cc1OC)-c1c(cnn1C1OC(COC(C)=O)C(OC(C)=O)C(OC(C)=O)C1OC(C)=O)CC2 (stereo not given)
TGI (M19-MEL melanoma): > 100 µM
TGI (DMS 273 small cell lung): > 100 µM
TGI (DLD-1 colon): > 100 µM

C/C(=N\NC(=S)N(C)C)c1ncc[nH]1
TGI (M19-MEL melanoma): > 100 µM
TGI (XF 498 CNS): > 100 µM
TGI (DLD-1 colon): > 100 µM
TGI (HOP-18 NSCLC): > 100 µM

COc1ccccc1NC(=O)CC(=O)n1nc(C)c(N=Nc2ccccc2F)c1C
TGI (M19-MEL melanoma): > 100 µM
TGI (XF 498 CNS): > 83.3 µM
TGI (DMS 273 small cell lung): > 100 µM
TGI (DLD-1 colon): > 100 µM
TGI (HOP-18 NSCLC): > 100 µM

CCCOc1ccc(/C=C\c2cc(OC)c(OC)c(OC)c2)cc1
TGI (M19-MEL melanoma): > 100 µM
TGI (XF 498 CNS): > 100 µM
TGI (DMS 273 small cell lung): > 100 µM
TGI (DLD-1 colon): > 100 µM
TGI (RXF-631 renal): > 100 µM
TGI (HOP-18 NSCLC): > 100 µM

CCCCOC(=O)/C(CC(=O)C=C(C)C)=N\NS(=O)(=O)c1ccc(C)cc1
TGI (M19-MEL melanoma): > 100 µM
TGI (XF 498 CNS): > 100 µM
TGI (DLD-1 colon): > 100 µM
TGI (HOP-18 NSCLC): > 100 µM

CC1CCC2(OC1)OC1CC3C4CC=C5CC(OC6OC(CO)C(OC7OC(C)C(OC8OC(C)C(O)C(O)C8O)C(O)C7O)C(O)C6OC6OC(C)C(O)C(O)C6O)CCC5(C)C4CCC3(C)C1C2C (stereo not given)
TGI (MDA-N): 1.43 µM

CCCCCCCCCCCCCCCCC(C(=O)O)C(O)(CC(=O)O)C(=O)O (stereo not given)
TGI (MDA-N): > 100 µM

CC(=O)/C=C1/c2ccccc2N(C(C)=O)C1O (stereo not given)
TGI (M19-MEL melanoma): > 100 µM
TGI (DMS 273 small cell lung): > 100 µM
TGI (DLD-1 colon): > 100 µM
TGI (HOP-18 NSCLC): > 100 µM

CC1C(=O)N=C2C(=CN(Cc3ccccc3)c3ccccc32)C(=O)N1C (stereo not given)
TGI (MDA-N): > 100 µM

Cc1ccccc1C(C#N)/C(=N/NC(=O)c1cc2ccccc2cc1O)C(=O)Nc1cccc(Cl)c1 (stereo not given)
TGI (M19-MEL melanoma): 52.1 µM
TGI (XF 498 CNS): 73.3 µM
TGI (DMS 273 small cell lung): 32.5 µM
TGI (DLD-1 colon): > 100 µM
TGI (HOP-18 NSCLC): 73.4 µM

O=C1C(NCCO)=C(N2CC2)C(=O)C(NCCO)=C1N1CC1
TGI (M19-MEL melanoma): > 59.8 µM
TGI (MDA-N): > 100 µM
TGI (XF 498 CNS): > 100 µM
TGI (DMS 273 small cell lung): > 40 µM
TGI (DLD-1 colon): > 68.8 µM
TGI (HOP-18 NSCLC): > 100 µM

O=C(O)Cc1cc(=O)oc2cc(O)c(Cl)cc12
TGI (M19-MEL melanoma): > 100 µM
TGI (XF 498 CNS): > 100 µM
TGI (DMS 273 small cell lung): > 100 µM
TGI (DLD-1 colon): > 100 µM
TGI (HOP-18 NSCLC): > 100 µM

COC(=O)c1c/c(=N\NC(=O)CC(=O)Nc2ccccc2Cl)c2ccccc2o1
TGI (XF 498 CNS): > 100 µM
TGI (DMS 273 small cell lung): > 100 µM
TGI (DLD-1 colon): > 100 µM
TGI (RXF-631 renal): > 100 µM

CCCOc1ccc(/C=C/c2cc(OC)c(OC)c(OC)c2)cc1
TGI (M19-MEL melanoma): > 100 µM
TGI (XF 498 CNS): 84.9 µM
TGI (DMS 273 small cell lung): 11.7 µM
TGI (DLD-1 colon): 35.7 µM
TGI (RXF-631 renal): > 100 µM
TGI (HOP-18 NSCLC): > 100 µM

COC(=O)c1nc(-c2ccc(Cl)c(Cl)c2)nc2ccccc12
TGI (M19-MEL melanoma): > 100 µM
TGI (XF 498 CNS): 19.7 µM
TGI (DMS 273 small cell lung): > 100 µM
TGI (DLD-1 colon): > 100 µM
TGI (RXF-631 renal): > 100 µM
TGI (HOP-18 NSCLC): 4.99 µM

CCNC(=O)C(O)C1(O)CCC2[C@@H]3CCC4=CC(=O)C=C[C@]4(C)C3[C@@H](O)C[C@@]21C (stereo not given in full)
TGI (M19-MEL melanoma): > 100 µM
TGI (XF 498 CNS): > 100 µM
TGI (DMS 273 small cell lung): > 100 µM
TGI (DLD-1 colon): > 100 µM
TGI (RXF-631 renal): > 100 µM
TGI (HOP-18 NSCLC): > 100 µM

N#CCCc1nc2ccc(Br)cc2c(=O)n1-c1ccc(O)c([N+](=O)[O-])c1
TGI (M19-MEL melanoma): 42.3 µM
TGI (XF 498 CNS): 34.9 µM
TGI (DLD-1 colon): 34.7 µM
TGI (RXF-631 renal): 33.9 µM

CCC(C)C1NC(=O)C(NC(=O)C(CC(C)C)N(C)C(=O)[C@@H]2CC(O)CN2)C(C)OC(=O)[C@H](Cc2ccc(OC)cc2)N(C)C(=O)[C@@H]2CCCN2C(=O)[C@H](CC(C)C)NC(=O)C(C)C(=O)[C@H](C(C)C)OC(=O)CC1O (stereo not given in full) (H-[X9][ξNMeL][ξT][X4]LP[NMeY](Me); ester 3-C)
TGI (MDA-N): 0.106 µM

Clc1ccc(C2=Nc3ccccc3SC(c3ccc(Cl)c(Cl)c3)C2)c(Cl)c1 (stereo not given)
TGI (M19-MEL melanoma): 32.2 µM
TGI (XF 498 CNS): 26 µM
TGI (DMS 273 small cell lung): 30 µM
TGI (DLD-1 colon): 25.6 µM

O=[N+]([O-])c1ccc(Cc2nc3ccccc3s2)cc1
TGI (M19-MEL melanoma): > 100 µM
TGI (XF 498 CNS): > 100 µM
TGI (DMS 273 small cell lung): > 100 µM
TGI (DLD-1 colon): > 100 µM
TGI (HOP-18 NSCLC): > 100 µM

CSC(=S)N(C)c1nc(=[N+](C)C)ss1
TGI (M19-MEL melanoma): > 100 µM
TGI (XF 498 CNS): > 100 µM
TGI (DMS 273 small cell lung): > 100 µM
TGI (DLD-1 colon): > 100 µM
TGI (HOP-18 NSCLC): > 100 µM

O=S(=O)(O)C(F)(F)C(F)(F)C(F)(F)C(F)(F)F
TGI (M19-MEL melanoma): > 100 µM
TGI (XF 498 CNS): > 100 µM
TGI (DMS 273 small cell lung): > 100 µM
TGI (DLD-1 colon): > 100 µM
TGI (HOP-18 NSCLC): > 100 µM

Cc1ccc2sc3cc(=O)cc(C)c-3nc2c1
TGI (M19-MEL melanoma): 30.7 µM
TGI (DMS 273 small cell lung): > 100 µM
TGI (DLD-1 colon): > 100 µM
TGI (RXF-631 renal): > 100 µM
TGI (HOP-18 NSCLC): > 100 µM
